System: 843782-103-R-J1-PDC complex spheroid viability
Assay: Anticancer human tumor 843782-103-R-J1-PDC patient-derived lung adenocarcinoma cell line growth inhibition [RAS]
Conditions: for IC50: curve of first compound; for viability, T/C: stronger effect = lower value
Procedure, shortened: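 Tumour cells grown as complex spheroids with HUVEC endothelial cells and mesenchymal stem cells, treated with RAS pathway inhibitor combinations. Each agent spans half-log steps from near clinical Cmax, or 10 microM where Cmax is unknown.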

[1] = second compound 0.0316 µM, first compound 0.000949 µM
[2] = second compound 0.0316 µM, first compound 0.003 µM
[3] = second compound 0.0316 µM, first compound 0.00949 µM
[4] = second compound 0.0316 µM, first compound 0.03 µM
[5] = second compound 0.0316 µM, first compound 0.0949 µM
[6] = second compound 0.0316 µM, first compound 0.3 µM
[7] = second compound 0.1 µM, first compound 0.000949 µM
[8] = second compound 0.1 µM, first compound 0.003 µM
[9] = second compound 0.1 µM, first compound 0.00949 µM
[10] = second compound 0.1 µM, first compound 0.03 µM
[11] = second compound 0.1 µM, first compound 0.0949 µM
[12] = second compound 0.1 µM, first compound 0.3 µM
[13] = second compound 0.316 µM, first compound 0.000949 µM
[14] = second compound 0.316 µM, first compound 0.003 µM
[15] = second compound 0.316 µM, first compound 0.00949 µM
[16] = second compound 0.316 µM, first compound 0.03 µM
[17] = second compound 0.316 µM, first compound 0.0949 µM
[18] = second compound 0.316 µM, first compound 0.3 µM
[19] = second compound 1 µM, first compound 0.000949 µM
[20] = second compound 1 µM, first compound 0.003 µM
[21] = second compound 1 µM, first compound 0.00949 µM
[22] = second compound 1 µM, first compound 0.03 µM
[23] = second compound 1 µM, first compound 0.0949 µM
[24] = second compound 1 µM, first compound 0.3 µM
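Further: viability read after seven days of compound exposure.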

`CC1(C)CCC(Nc2ncc(C(F)(F)F)c(-c3c[nH]c4c(P(C)(C)=O)c(C#N)ccc34)n2)CN1` (centres undefined) + C#Cc1c(F)ccc2cc(O)cc(-c3ncc4c(N5CC6CCC(C5)N6)nc(OCC56CCCN5CC(F)C6)nc4c3F)c12 showed an IC50 (second compound 0.0316 µM) of 22.6 nM, an IC50 (second compound 0.1 µM) of 17.4 nM and an IC50 (second compound 0.316 µM) of 20.1 nM. It also gave an IC50 (second compound 1 µM) of 7.9 nM, an IC50 (second compound 3.16 µM) of 5.68 nM and an IC50 (second compound 10 µM) of 0.949 nM. For the same compound, the viability, T/C [1] was 102%, the viability, T/C [2] was 93.6% and the viability, T/C [3] was 72.1%. It also gave a viability, T/C [4] of 44.9%, a viability, T/C [5] of 21.1% and a viability, T/C [6] of 22.7%. For the same compound, the viability, T/C [7] was 103%, the viability, T/C [8] was 88.1% and the viability, T/C [9] was 58.6%. For the same compound, the viability, T/C [10] was 42.5%, the viability, T/C [11] was 26.8% and the viability, T/C [12] was 23.1%. For the same compound, the viability, T/C [13] was 101%, the viability, T/C [14] was 76.2% and the viability, T/C [15] was 58.1%. It also gave a viability, T/C [16] of 51.5%, a viability, T/C [17] of 25.6% and a viability, T/C [18] of 24.6%. The viability, T/C [19] was 88.5%, the viability, T/C [20] was 69% and the viability, T/C [21] was 46.2%. The viability, T/C [22] was 30.9%, the viability, T/C [23] was 26.4% and the viability, T/C [24] was 20.5%. The viability, T/C (second compound 3.16 µM, first compound 0.000949 µM) was 61%, the viability, T/C (second compound 3.16 µM, first compound 0.003 µM) was 57.4% and the viability, T/C (second compound 3.16 µM, first compound 0.00949 µM) was 44%. For the same compound, the viability, T/C (second compound 3.16 µM, first compound 0.03 µM) was 29.2%, the viability, T/C (second compound 3.16 µM, first compound 0.0949 µM) was 24.9% and the viability, T/C (second compound 3.16 µM, first compound 0.3 µM) was 24.6%. The viability, T/C (second compound 10 µM, first compound 0.000949 µM) was 46.6%, the viability, T/C (second compound 10 µM, first compound 0.003 µM) was 44.9% and the viability, T/C (second compound 10 µM, first compound 0.00949 µM) was 37.4%. For the same compound, the viability, T/C (second compound 10 µM, first compound 0.03 µM) was 59.2%, the viability, T/C (second compound 10 µM, first compound 0.0949 µM) was 26% and the viability, T/C (second compound 10 µM, first compound 0.3 µM) was 21.8%.
Compound `CCc1c2c(nc3ccc(O)cc13)-c1cc3c(c(=O)n1C2)COC(=O)[C@]3(O)CC` + C=CC(=O)N1CCN(c2nc(OCC3CCCN3C)nc3c(F)c(-c4nc(N)cc(C)c4C(F)(F)F)c(Cl)cc23)C(C)C1 has an IC50 (second compound 0.00316 µM) of 1.67 nM, an IC50 (second compound 0.01 µM) of 1.52 nM and an IC50 (second compound 0.0316 µM) of 1.56 nM. It also gave an IC50 (second compound 0.1 µM) of 1.56 nM, an IC50 (second compound 0.316 µM) of 1.54 nM and an IC50 (second compound 1 µM) of 1.52 nM. It also gave a viability, T/C (second compound 0.00316 µM, first compound 0.000949 µM) of 80.4%, a viability, T/C (second compound 0.00316 µM, first compound 0.003 µM) of 18.2% and a viability, T/C (second compound 0.00316 µM, first compound 0.00949 µM) of 6.35%. The viability, T/C (second compound 0.00316 µM, first compound 0.03 µM) was 2.5%, the viability, T/C (second compound 0.00316 µM, first compound 0.0949 µM) was 1.18% and the viability, T/C (second compound 0.00316 µM, first compound 0.3 µM) was 0.74%. The viability, T/C (second compound 0.01 µM, first compound 0.000949 µM) was 72.8%, the viability, T/C (second compound 0.01 µM, first compound 0.003 µM) was 16.8% and the viability, T/C (second compound 0.01 µM, first compound 0.00949 µM) was 8.52%. The viability, T/C (second compound 0.01 µM, first compound 0.03 µM) was 3.04%, the viability, T/C (second compound 0.01 µM, first compound 0.0949 µM) was 0.93% and the viability, T/C (second compound 0.01 µM, first compound 0.3 µM) was 0.76%. The viability, T/C [1] was 72.6%, the viability, T/C [2] was 19.5% and the viability, T/C [3] was 7.44%. It also gave a viability, T/C [4] of 2.35%, a viability, T/C [5] of 1.24% and a viability, T/C [6] of 0.8%. For the same compound, the viability, T/C [7] was 73.6%, the viability, T/C [8] was 18.1% and the viability, T/C [9] was 7.09%. For the same compound, the viability, T/C [10] was 1.96%, the viability, T/C [11] was 1.46% and the viability, T/C [12] was 0.64%. It also gave a viability, T/C [13] of 70.7%, a viability, T/C [14] of 21.1% and a viability, T/C [15] of 7.83%. It also gave a viability, T/C [16] of 2.85%, a viability, T/C [17] of 1.34% and a viability, T/C [18] of 0.99%. The viability, T/C [19] was 67.7%, the viability, T/C [20] was 24.5% and the viability, T/C [21] was 7.99%. It also gave a viability, T/C [22] of 3.23%, a viability, T/C [23] of 1.57% and a viability, T/C [24] of 0.98%.

From PubChem BioAssay AID2060883 (Molecular Pharmacology Branch, DTP, NCI, 2025)
